In article PMC11603058 (Scientific Reports, 2024):
Peptide text beside a SMILES is read from it. * marks the point of attachment. Cbz = O=C(OCc1ccccc1)*; CH2F = FC*

How the values were obtained:
MIA PaCa-2 cells [1] = experiment: Viability of AJO14-treated cells in presence of cell death inhibitors; assay type: cell-based, human; details: MIA PaCa-2, 24 h; Z-VAD-FMK (20 µM), Nec-1 (40 µM), or Olaparib (25 μM)
MIA PaCa-2 cells [2] = experiment: Oxygen consumption rate, Seahorse XF; assay type: cell-based, human; details: MIA PaCa-2, 24 h, AJO14 (10 μM) with increasing concentrations of Olaparib
hERG channel = hERG channel (Homo sapiens, UniProt Q12809); experiment: Predictor hERG Fluorescence Polarization assay; assay type: binding; details: read-out: hERG channel inhibition (IC50), 0.1-80 μM
Sequence of hERG channel (Q12809 whole entry): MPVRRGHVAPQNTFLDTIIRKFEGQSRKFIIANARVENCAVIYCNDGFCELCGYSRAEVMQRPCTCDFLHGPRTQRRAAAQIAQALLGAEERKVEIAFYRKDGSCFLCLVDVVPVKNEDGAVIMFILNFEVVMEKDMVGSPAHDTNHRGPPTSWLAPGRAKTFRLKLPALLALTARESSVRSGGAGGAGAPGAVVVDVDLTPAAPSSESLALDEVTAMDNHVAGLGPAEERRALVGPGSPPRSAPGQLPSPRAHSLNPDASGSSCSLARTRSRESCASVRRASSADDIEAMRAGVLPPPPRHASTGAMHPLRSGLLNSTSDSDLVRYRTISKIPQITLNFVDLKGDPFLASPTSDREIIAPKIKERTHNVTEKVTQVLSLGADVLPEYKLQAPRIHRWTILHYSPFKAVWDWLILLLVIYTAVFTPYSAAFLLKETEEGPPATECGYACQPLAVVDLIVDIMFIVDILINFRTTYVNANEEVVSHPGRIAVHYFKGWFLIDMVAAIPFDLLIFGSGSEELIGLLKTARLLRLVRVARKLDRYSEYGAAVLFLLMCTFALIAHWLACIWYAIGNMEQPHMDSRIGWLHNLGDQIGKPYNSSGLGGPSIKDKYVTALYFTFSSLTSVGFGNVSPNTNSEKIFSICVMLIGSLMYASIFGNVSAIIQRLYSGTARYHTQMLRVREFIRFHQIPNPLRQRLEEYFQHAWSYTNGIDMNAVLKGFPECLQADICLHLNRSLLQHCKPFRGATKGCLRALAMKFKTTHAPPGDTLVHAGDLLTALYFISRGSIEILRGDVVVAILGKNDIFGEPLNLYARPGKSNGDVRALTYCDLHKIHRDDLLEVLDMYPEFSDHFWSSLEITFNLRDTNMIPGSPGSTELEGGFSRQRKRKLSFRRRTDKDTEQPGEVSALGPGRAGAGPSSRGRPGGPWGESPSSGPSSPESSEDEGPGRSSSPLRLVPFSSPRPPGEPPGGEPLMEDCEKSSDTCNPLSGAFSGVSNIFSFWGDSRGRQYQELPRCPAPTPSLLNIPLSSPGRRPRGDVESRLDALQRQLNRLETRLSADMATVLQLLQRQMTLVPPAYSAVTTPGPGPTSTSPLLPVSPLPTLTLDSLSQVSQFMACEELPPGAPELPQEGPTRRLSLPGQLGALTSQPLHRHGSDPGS

SMILES	effect of pretreatment on cell viability of cells treated with AJO14 (MIA PaCa-2 cells [1])	effect on mitochondrial metabolism failure (OCR) caused by AJO14 (MIA PaCa-2 cells [2])	IC50 (hERG channel) [nM]
CN1C(=O)C(Cc2c[nH]c3ccccc23)NC1=S (centres unmarked) [Necrostatin]	partially improved the cell viability	–	–
O=C(c1cc(Cc2n[nH]c(=O)c3ccccc23)ccc1F)N1CCN(C(=O)C2CC2)CC1 [Olaparib]	partially improved the cell viability	could reverse the strong mitochondrial metabolism failure caused by AJO14	–
COC(=O)C[C@H](NC(=O)[C@H](C)NC(=O)[C@@H](NC(=O)OCc1ccccc1)C(C)C)C(=O)CF [Z-VAD-FMK] (Cbz-Val-Ala-Asp(OMe)-CH2F)	partially improved the cell viability	–	–
CN(C)CCN1CCN(CCCN2c3ccccc3Sc3ccc(C(F)(F)F)cc32)CC1 [ZZW-115]	–	–	2000
